Some test systems named below: IGROV1 ovarian; PC-3 prostate; SF-268 CNS; RXF 393 renal; DU-145 prostate; KM12 colon; MDA-MB-231 breast; 786-0 renal; HOP-62 NSCLC; HCT-116 colon.
Test in all cases: inhibition of tumour cell growth, NCI panel, 48 h

The structures appear in SMILES notation.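 Cells were grown in 96-well plates and exposed to each compound for 48 hours at five concentrations; endpoints were interpolated linearly between bracketing concentrations, or set to the highest concentration if not reached. TGI is the concentration that stops growth completely.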

For `c1ccc2nc3[nH]c4ccccc4c3cc2c1`, the TGI is 2.57 µM in the assay with IGROV1 ovarian; 4.09 µM in the assay with PC-3 prostate; 7.3 µM with SF-268 CNS; 2.66 µM with RXF 393 renal; 13.1 µM with DU-145 prostate; 1.81 µM with KM12 colon. Moreover, the TGI was 2.64 µM with MDA-MB-231 breast and 1.16 µM in the assay on 786-0 renal.
As to `O=C1CC(Br)c2c(Cl)sc(Cl)c21` (stereo not given), the TGI in the assay with IGROV1 ovarian was found to be 24.7 µM; in the assay on HOP-62 NSCLC it was 19.1 µM; with PC-3 prostate, 23.4 µM; with SF-268 CNS, 26.6 µM; in the assay with RXF 393 renal, 4.91 µM; in the assay on DU-145 prostate, 31.3 µM. The TGI in the assay on KM12 colon turned out to be 20.2 µM; with MDA-MB-231 breast it was 22.7 µM; in the assay on 786-0 renal, 8.91 µM; in the assay with HCT-116 colon, 16.9 µM.
For the molecule `O=C1Oc2ccccc2C(=O)/C1=C/N1C(=O)/C(=C/c2ccc([N+](=O)[O-])cc2)SC1=S`, the TGI with IGROV1 ovarian was over 100 µM; in the assay on HOP-62 NSCLC it was 40.8 µM; in the assay with PC-3 prostate, 61.7 µM; in the assay on SF-268 CNS it was 75.4 µM; in the assay with RXF 393 renal, 79.3 µM; in the assay on DU-145 prostate, over 100 µM. Besides, the TGI with KM12 colon is 52.3 µM; with MDA-MB-231 breast, 57.2 µM; with 786-0 renal it was over 100 µM; in the assay with HCT-116 colon it was 50.2 µM.
`CCC(=O)OCc1ccc2oc(=O)c(C(=O)Oc3cncc(Cl)c3)cc2c1`: the TGI in the assay with IGROV1 ovarian, with HOP-62 NSCLC, with PC-3 prostate, with SF-268 CNS, with RXF 393 renal and in the assay on DU-145 prostate was over 100 µM throughout. Further, the TGI in the assay with KM12 colon, with MDA-MB-231 breast, in the assay on 786-0 renal and in the assay on HCT-116 colon was over 100 µM each time.
In the case of `Cc1cc(C)c2c(n1)S(=O)(=O)N(CCCN1CCN(c3cccc(C(F)(F)F)c3)CC1)/C(=C(\O)c1ccccc1)C2=O`, the TGI in the assay on IGROV1 ovarian is 20.5 µM; in the assay on HOP-62 NSCLC it was over 100 µM; in the assay on PC-3 prostate, over 100 µM; with SF-268 CNS it was over 100 µM; in the assay with RXF 393 renal it was 20.9 µM; in the assay with DU-145 prostate it was over 100 µM. Moreover, the TGI is 27 µM with KM12 colon, 71.8 µM in the assay with MDA-MB-231 breast, 16.5 µM in the assay with 786-0 renal and 18.3 µM in the assay on HCT-116 colon.
For `Cn1c(N2CCCC2)c(C=O)c(=O)n(C)c1=O`, the TGI with IGROV1 ovarian, in the assay on HOP-62 NSCLC, with PC-3 prostate, with SF-268 CNS, in the assay on RXF 393 renal and with DU-145 prostate was over 100 µM each time. Further, the TGI with KM12 colon, in the assay on MDA-MB-231 breast, in the assay with 786-0 renal and with HCT-116 colon was over 100 µM in each case.
Regarding `COC(=O)C(NC(=O)CNC(=O)CSc1nnc(COc2ccc(Cl)cc2)n1-c1ccccc1)C(C)C` (stereo not given), the TGI stood at 50.1 µM with IGROV1 ovarian; 92 µM with HOP-62 NSCLC; 33 µM in the assay on PC-3 prostate; 42.7 µM in the assay with SF-268 CNS; 32.8 µM in the assay with RXF 393 renal; 35.2 µM in the assay with DU-145 prostate. In addition, the TGI in the assay on KM12 colon is 35.4 µM; in the assay with MDA-MB-231 breast, 36.5 µM; in the assay with 786-0 renal, 32.5 µM; in the assay with HCT-116 colon it was 31.4 µM.
As for `OC(c1cccs1)c1cc2ccccc2s1` (stereo not given), the TGI in the assay with IGROV1 ovarian, with HOP-62 NSCLC, in the assay on PC-3 prostate, in the assay with SF-268 CNS, in the assay with RXF 393 renal and with DU-145 prostate was over 10 µM in each case. For the same molecule, the TGI in the assay on KM12 colon, with MDA-MB-231 breast, in the assay with 786-0 renal and in the assay on HCT-116 colon was over 10 µM in each case.
As to `C=C1C(=O)OC2/C=C(\C)C(O)CC(O)C(C)(O)CC(OC(=O)/C(C)=C/C)C12` (stereo not given), the TGI in the assay with IGROV1 ovarian, in the assay with HOP-62 NSCLC, in the assay on PC-3 prostate, with SF-268 CNS, in the assay on RXF 393 renal and with DU-145 prostate was over 100 µM in each case. Moreover, the TGI in the assay with KM12 colon is over 75.8 µM; with MDA-MB-231 breast, over 100 µM; in the assay on 786-0 renal, over 100 µM; in the assay with HCT-116 colon, over 100 µM.
In the case of `CC(C)(C)c1cc(-c2ccc(-c3cc(C(C)(C)C)c(O)c(C(C)(C)C)c3)cc2)cc(C(C)(C)C)c1O`, the TGI in the assay on IGROV1 ovarian, with HOP-62 NSCLC, in the assay with PC-3 prostate, in the assay with SF-268 CNS, in the assay on RXF 393 renal and with DU-145 prostate was over 100 µM throughout. Further, the TGI with KM12 colon, in the assay on MDA-MB-231 breast, with 786-0 renal and in the assay on HCT-116 colon was over 100 µM in each case.
On to `OC1C(O)C(O)C(O)C(O)C1O` (stereo not given), for which the TGI in the assay with IGROV1 ovarian, with HOP-62 NSCLC, in the assay with PC-3 prostate, in the assay on SF-268 CNS, with RXF 393 renal and in the assay on DU-145 prostate was over 1000 µM each time. Besides, the TGI in the assay on MDA-MB-231 breast, in the assay with 786-0 renal and in the assay on HCT-116 colon was over 1000 µM each time.
Turning to `N[C@@H]1c2c(Br)sc(Br)c2[C@H](O)[C@@H]1O`, the TGI with IGROV1 ovarian, in the assay on PC-3 prostate, in the assay on SF-268 CNS, in the assay on RXF 393 renal, with DU-145 prostate and in the assay with KM12 colon was over 100 µM in each case. Moreover, the TGI in the assay with MDA-MB-231 breast, in the assay on 786-0 renal and with HCT-116 colon was over 100 µM each time.
As to `CC(SC(=S)N1CCCCC1)C(=O)Nc1nnc(-c2ccc(Cl)cc2)o1` (stereo not given), the TGI in the assay on IGROV1 ovarian is over 100 µM; in the assay with HOP-62 NSCLC it was over 100 µM; in the assay on PC-3 prostate, 82.9 µM; in the assay with SF-268 CNS it was 81.1 µM; with RXF 393 renal, over 100 µM; with DU-145 prostate it was over 100 µM. The TGI in the assay with MDA-MB-231 breast is over 100 µM; with 786-0 renal, 47.5 µM; in the assay with HCT-116 colon, 40.3 µM.

Source of the values: PubChem BioAssay (NCI).
